Measurements from patent US8114885B2, “Chemical compounds” (GlaxoSmithKline LLC, priority 2000, dated 2012).

The compounds below were run on HUVEC (assay: Human Umbilical Vein Endothelial Cell (HUVEC) proliferation assay (BrdU incorporation)). Conditions: VEGF-stimulated HUVEC, 72 hrs, read-out: Inhibition of HUVEC proliferation IC50.
Format: cell-based
Method: Human Umbilical Vein Endothelial Cell (HUVEC) Proliferation Assay (BrdU Incorporation) Materials
HUVEC cells and EGM-MV (Endothelial cell growth medium—microvascular) were purchased from Clonetics (San Diego, Calif.). VEGF and bFGF were purchased from R&D Systems (Minneapolis, Minn.). Anti-BrdU antibody was obtained from Chemicon International (Temecula, Calif.).
HUVECs were routinely maintained in EGM-MV medium and were used within passage 7. HUVECs were plated at a density of 2500 cells/well in M199 medium containing 5% FBS (Hyclone) in type I collagen coated plate (Becton Dickinson). The plate was incubated at 37° C. overnight. The medium was removed by aspiration, and test compounds were added to each well in a volume of 0.1 ml/well in serum-free M199 medium. Compound concentrations ranged from 1.5 nM to 30 micromolar. The plate was incubated for 30 min at 37° C. Another 0.1 ml of serum-free M199 medium containing BSA and VEGF (or bFGF) was added to give a final concentration of 0.1% BSA and 10 ng/ml VEGF (0.3 ng/ml bFGF). The plate was incubated at 37° C. for 72 hrs. BrdU was added to each well after the first 48 hrs to give a concentration of 10 micromolar. The calorimetric ELISA assay was performed according to manufacturer's (Roche Molecular Sciences) instructions, with detection by absorbance reading at 450 nm. Results were plotted as concentration of test compound vs. absorbance to give an IC50 value for inhibition of BrdU incorporation.
With `CCN(c1ccc2c(C)n[nH]c2c1)c1ccnc(Nc2cccc(NC(C)=O)c2)n1` [Example 32, N-[3-({4-[ethyl(3-methyl-1H-indazol-6-yl)amino]-2-pyrimidinyl}amino)phenyl]acetamide] the IC50 was 1 to 200 nM.
`COc1ccc(S(=O)(=O)Cc2cc(C)on2)cc1Nc1nccc(Nc2ccc3c(C)n[nH]c3c2)n1` [Example 33, N^2-(2-methoxy-5-{[(5-methyl-3-isoxazolyl)methyl]sulfonyl}phenyl)-N^4-(3-methyl-1H-indazol-6-yl)-2,4-pyrimidinediamine] gave an IC50 of over 1000 nM.
Work on `COc1ccc(S(N)(=O)=O)cc1Nc1nccc(Nc2ccc3c(C)n[nH]c3c2)n1` [Example 34, 4-methoxy-3-({4-[(3-methyl-1H-indazol-6-yl)amino]-2-pyrimidinyl}amino)benzenesulfonamide] yielded an IC50 of 201 to 500 nM.
`COc1ccc(S(=O)(=O)C(C)C)cc1Nc1nccc(N(C)c2ccc3c(C)n[nH]c3c2)n1` [Example 35, N^2-[5-(isopropylsulfonyl)-2-methoxyphenyl]-N^4-methyl-N^4-(3-methyl-1H-indazol-6-yl)-2,4-pyrimidinediamine] was tested, and the IC50 was 1 to 200 nM.
`CCS(=O)(=O)c1ccc(OC)c(Nc2nccc(N(c3ccc4c(C)n[nH]c4c3)C(C)C)n2)c1` [Example 36, N^2-[5-(ethylsulfonyl)-2-methoxyphenyl]-N^4-isopropyl-N^4-(3-methyl-1H-indazol-6-yl)-2,4-pyrimidinediamine] was tested, and the IC50 was over 1000 nM.
`CN(c1ccc2cn[nH]c2c1)c1ccnc(Nc2cccc(CS(C)(=O)=O)c2)n1` [Example 37, N^4-(1H-indazol-6-yl)-N^4-methyl-N^2-{3-[(methylsulfonyl)methyl]phenyl}-2,4-pyrimidinediamine] was tested, and the IC50 was 201 to 500 nM.
With `Cc1nn(C)c2cc(N(C)c3ccnc(Nc4cccc(CS(C)(=O)=O)c4)n3)ccc12` [Example 38, N^4-(1,3-dimethyl-1H-indazol-6-yl)-N^4-methyl-N^2-{3-[(methylsulfonyl)methyl]phenyl}-2,4-pyrimidinediamine] the IC50 was 201 to 500 nM.
`Cc1c2ccc(N(C)c3ccnc(Nc4cccc(CS(C)(=O)=O)c4)n3)cc2nn1C` [Example 39, N^4-(2,3-dimethyl-2H-indazol-6-yl)-N^4-methyl-N^2-{3-[(methylsulfonyl)methyl]phenyl}-2,4-pyrimidinediamine] showed an IC50 of 1 to 200 nM.
`CCS(=O)(=O)c1ccc(OC)c(Nc2nccc(N(C)c3ccc4c(C)n(C)nc4c3)n2)c1` [Example 40, N^4-(2,3-dimethyl-2H-indazol-6-yl)-N^2-[5-(ethylsulfonyl)-2-methoxyphenyl]-N^4-methyl-2,4-pyrimidinediamine] showed an IC50 of 1 to 200 nM.
`CCC(=O)c1ccc(OC)c(Nc2nccc(Nc3ccc4c(C)n[nH]c4c3)n2)c1` [Example 41, 1-[4-methoxy-3-({4-[(3-methyl-1H-indazol-6-yl)amino]-2-pyrimidinyl}amino)phenyl]-1-propanone] was tested, and the IC50 was 501 to 1000 nM.
With `COc1ccc(S(=O)(=O)Nc2cccc(Nc3nccc(N(C)c4ccc5c(C)n[nH]c5c4)n3)c2)cc1` [Example 42, 4-methoxy-N-[3-({4-[methyl(3-methyl-1H-indazol-6-yl)amino]-2-pyrimidinyl}amino)phenyl]benzenesulfonamide] the IC50 was 201 to 500 nM.
Compound `CNS(=O)(=O)c1ccc(OC)c(Nc2nccc(Nc3ccc4c(C)n[nH]c4c3)n2)c1` [Example 43, 4-methoxy-N-methyl-3-({4-[(3-methyl-1H-indazol-6-yl)amino]-2-pyrimidinyl}amino)benzenesulfonamide] has an IC50 of 201 to 500 nM.
Compound `Cc1n[nH]c2cc(N(CC#N)c3ccnc(Nc4ccc(CS(C)(=O)=O)cc4)n3)ccc12` [Example 44, [(3-methyl-1H-indazol-6-yl)(2-{4-[(methylsulfonyl)methyl]anilino}-4-pyrimidinyl)amino]acetonitrile] has an IC50 of 201 to 500 nM.
In the case of `CCS(=O)(=O)c1ccc(OC)c(Nc2nccc(N(CC#N)c3ccc4c(C)n[nH]c4c3)n2)c1` [Example 45, [{2-[5-(ethylsulfonyl)-2-methoxyanilino]-4-pyrimidinyl}(3-methyl-1H-indazol-6-yl)amino]acetonitrile], the IC50 is reported as 501 to 1000 nM.
Work on `Cc1n[nH]c2cc(N(CC#N)c3ccnc(Nc4cccc(CS(C)(=O)=O)c4)n3)ccc12` [Example 46, [(3-methyl-1H-indazol-6-yl)(2-{3-[(methylsulfonyl)methyl]anilino}-4-pyrimidinyl)amino]acetonitrile] yielded an IC50 of 1 to 200 nM.
`CNS(=O)(=O)c1ccc(OC)c(Nc2nccc(N(C)c3ccc4c(C)n[nH]c4c3)n2)c1` [Example 47, 4-methoxy-N-methyl-3-({4-[methyl(3-methyl-1H-indazol-6-yl)amino]-2-pyrimidinyl}amino)benzenesulfonamide] gave an IC50 of 201 to 500 nM.
Work on `Cc1n[nH]c2cc(N(C)c3ccnc(Nc4ccc(C(N)=O)cc4)n3)ccc12` [Example 48, 4-({4-[methyl(3-methyl-1H-indazol-6-yl)amino]-2-pyrimidinyl}amino)benzamide] yielded an IC50 of 1 to 200 nM.
With `COc1cc(S(N)(=O)=O)ccc1Nc1nccc(N(C)c2ccc3c(C)n[nH]c3c2)n1` [Example 49, 3-methoxy-4-({4-[methyl(3-methyl-1H-indazol-6-yl)amino]-2-pyrimidinyl}amino)benzenesulfonamide] the IC50 was 1 to 200 nM.
`C#CCN(c1ccc2c(C)n[nH]c2c1)c1ccnc(Nc2cccc(CS(C)(=O)=O)c2)n1` [Example 50] was tested, and the IC50 was 201 to 500 nM.
`C#CCN(c1ccc2c(C)n[nH]c2c1)c1ccnc(Nc2cccc(S(N)(=O)=O)c2)n1` [Example 51, 3-({4-[(3-methyl-1H-indazol-6-yl)(2-propynyl)amino]-2-pyrimidinyl}amino)benzenesulfonamide] gave an IC50 of 201 to 500 nM.
In the case of `Cc1n[nH]c2cc(N(C)c3ccnc(Nc4ccc(S(N)(=O)=O)cc4)n3)ccc12` [Example 52, 4-({4-[methyl(3-methyl-1H-indazol-6-yl)amino]-2-pyrimidinyl}amino)benzenesulfonamide], the IC50 is reported as 1 to 200 nM.
With `Cc1n[nH]c2cc(N(C)c3ccnc(Nc4cccc(S(C)(=O)=O)c4)n3)ccc12` [Example 53, N^4-methyl-N^4-(3-methyl-1H-indazol-6-yl)-N^2-[3-(methylsulfonyl)phenyl]-2,4-pyrimidinediamine] the IC50 was 1 to 200 nM.
Compound `COc1ccc(S(N)(=O)=O)cc1Nc1nccc(N(C)c2ccc3c(C)n[nH]c3c2)n1` [Example 54, 4-methoxy-3-({4-[methyl(3-methyl-1H-indazol-6-yl)amino]-2-pyrimidinyl}amino)benzenesulfonamide] has an IC50 of 1 to 200 nM.
With `CCS(=O)(=O)c1ccc(OC)c(Nc2nccc(Nc3ccc4c(C)n[nH]c4c3)n2)c1` [Example 55, N^2-[5-(ethylsulfonyl)-2-methoxyphenyl]-N^4-(3-methyl-1H-indazol-6-yl)-2,4-pyrimidinediamine] the IC50 was 1 to 200 nM.
For `Cc1n[nH]c2cc(N(C)c3ccnc(Nc4cccc(C(N)=O)c4)n3)ccc12` [Example 56, 3-({4-[methyl(3-methyl-1H-indazol-6-yl)amino]-2-pyrimidinyl}amino)benzamide], the IC50 was 1 to 200 nM.
`CCS(=O)(=O)c1ccc(Nc2nccc(N(C)c3ccc4c(C)n[nH]c4c3)n2)cc1` [Example 57, N^2-[4-(ethylsulfonyl)phenyl]-N^4-methyl-N^4-(3-methyl-1H-indazol-6-yl)-2,4-pyrimidinediamine] was tested, and the IC50 was 201 to 500 nM.
`CCS(=O)(=O)NCc1ccc(Nc2nccc(N(C)c3ccc4c(C)n[nH]c4c3)n2)cc1` [Example 58, N-[4-({4-[methyl(3-methyl-1H-indazol-6-yl)amino]-2-pyrimidinyl}amino)benzyl]ethanesulfonamide] showed an IC50 of 1 to 200 nM.
`Cc1n[nH]c2cc(N(C)c3ccnc(Nc4cccc(CNS(C)(=O)=O)c4)n3)ccc12` [Example 59, N-[3-({4-[methyl (3-methyl-1H-indazol-6-yl)amino]-2-pyrimidinyl}amino)benzyl]methanesulfonamide] gave an IC50 of 1 to 200 nM.
`Cc1n[nH]c2cc(N(C)c3ccnc(Nc4ccc(Cl)c(S(N)(=O)=O)c4)n3)ccc12` [Example 60, 2-chloro-5-({4-[methyl(3-methyl-1H-indazol-6-yl)amino]-2-pyrimidinyl}amino)benzenesulfonamide] showed an IC50 of 1 to 200 nM.
Compound `Cc1n[nH]c2cc(N(C)c3ccnc(Nc4ccc(S(N)(=O)=O)c(Cl)c4)n3)ccc12` [Example 61, 2-chloro-4-({4-[methyl(3-methyl-1H-indazol-6-yl)amino]-2-pyrimidinyl}amino)benzenesulfonamide] has an IC50 of 201 to 500 nM.
With `Cc1n[nH]c2cc(N(C)c3ccnc(Nc4cc(S(N)(=O)=O)ccc4Cl)n3)ccc12` [Example 62, 4-chloro-3-({4-[methyl(3-methyl-1H-indazol-6-yl)amino]-2-pyrimidinyl}amino)benzenesulfonamide] the IC50 was 1 to 200 nM.
`Cc1cc(S(N)(=O)=O)ccc1Nc1nccc(N(C)c2ccc3c(C)n[nH]c3c2)n1` [Example 63, 3-methyl-4-({4-[methyl(3-methyl-1H-indazol-6-yl)amino]-2-pyrimidinyl}amino)benzenesulfonamide] was tested, and the IC50 was 201 to 500 nM.
In the case of `Cc1ccc(Nc2nccc(N(C)c3ccc4c(C)n[nH]c4c3)n2)cc1S(N)(=O)=O` [Example 64, 2-methyl-5-({4-[methyl(3-methyl-1H-indazol-6-yl)amino]-2-pyrimidinyl}amino)benzenesulfonamide], the IC50 is reported as 1 to 200 nM.
In the case of `Cc1ccc(S(N)(=O)=O)cc1Nc1nccc(N(C)c2ccc3c(C)n[nH]c3c2)n1` [Example 65, 4-methyl-3-({4-[methyl(3-methyl-1H-indazol-6-yl)amino]-2-pyrimidinyl}amino)benzenesulfonamide], the IC50 is reported as 1 to 200 nM.
